Test system: Sprague-Dawley rats
Conditions: rat
Protocol: Brief description of the protocol: 16 male Sprague-Dawley rats weighting 100 to 125 g were randomly assigned to 4 groups (4 rats per group (Gp)): Gp1, Phosphate buffer solution (PBS); Gp2, 0.02% benzalkonium chloride (BAK); Gp3, Xalatan®; Gp4, Latanoprost Emulsion. Following general and local anesthesia with ketamine/xylazine and topical Oxybucaïne, respectively, the upper part of the right eye cornea of each rat was scraped with a surgical scalpel following an application of 50 μl of 50% ethanol solution. The upper corneal and limbal epithelia were removed (at day D0). One drop of Tobrex was instilled immediately after the scraping. 2 and 5 hours post scraping one drop of the different test articles were applied onto the cornea of the right eye. These latter instillations were repeated every day for 4 days, and corneal evaluation with an in vivo confocal microscope (IVCM-HRT) was performed on day 4 after the last instillation. At the end of the experimental procedure (the total duration of the treatment is 5 days; from day D0 to D4), the animals were sacrificed and the eyes harvested to characterize the histological organisation of the treated cornea.

In the case of “benzalkonium chloride [0.02% BAK solution]”, the “IVCM (in vivo confocal microscopy) of superficial epithelium: scar tissue / hypereflectivity” value is reported as “corneal edema and tissue disorganisation” and the “Hematoxylin-eosin staining of treated cornea (epithelium thinning, edema, inflammatory infiltrates)” value (in vivo) is reported as “edemas and inflammatory infiltrates are particularly obvious”.

Reference: US9555045B2, “Use of prostaglandins F2alpha and analogues for the healing of corneal and conjunctival lesions” (SANTEN SAS, priority 2009, dated 2017)
